Experiments:
Type in all cases: ADME
[1] = (§1) The drug is tested on the gut metagenome community of T-01 with ENA study accession number: PRJEB31790 for biotransformation under anaerobic condition. The drug concentrations were measured over 7 timepoints collected between 0 and 12 hours of incubation by liquid-chromatography-coupled mass spectrometry (LC–MS); parameters: dose 5 uM, timepoint 0, 0.75, 1.5, 3, 6, 9, 12 hours; conditions: 5 µM
[2] = The drug is tested on Streptococcus sanguinis strain: DSM20567 for biotransformation under anaerobic condition. The drug concentrations were measured over 6 timepoints collected between 0 and 12 hours of incubation by liquid-chromatography-coupled mass spectrometry (LC–MS); parameters: dose 5 uM, timepoint 0, 1.5, 3, 6, 9, 12 hours; conditions: 5 µM
[3] = as §1, with “P-01” for “T-01”, “microaerobic” for “anaerobic”; parameters: dose 5 uM, timepoint 0, 0.75, 1.5, 3, 6, 9, 12 hours; conditions: 5 µM
[4] = The drug is tested on Eubacterium eligens strain: DSM3376 for biotransformation under anaerobic condition. The drug concentrations were measured over 6 timepoints collected between 0 and 12 hours of incubation by liquid-chromatography-coupled mass spectrometry (LC–MS); parameters: dose 5 uM, timepoint 0, 1.5, 3, 6, 9, 12 hours; conditions: lachnospira eligens, 5 µM
[5] = as §1, with “T-03” for “T-01”, “microaerobic” for “anaerobic”; parameters: dose 5 uM, timepoint 0, 0.75, 1.5, 3, 6, 9, 12 hours; conditions: 5 µM
[6] = The drug is tested on Bacteroides caccae strain: DSM19024 for biotransformation under anaerobic condition. The drug concentrations were measured over 6 timepoints collected between 0 and 12 hours of incubation by liquid-chromatography-coupled mass spectrometry (LC–MS); parameters: dose 5 uM, timepoint 0, 1.5, 3, 6, 9, 12 hours; conditions: 5 µM
[7] = The drug is tested on Streptococcus salivarius strain: DSM20560 for biotransformation under microaerobic condition. The drug concentrations were measured over 6 timepoints collected between 0 and 12 hours of incubation by liquid-chromatography-coupled mass spectrometry (LC–MS); parameters: dose 5 uM, timepoint 0, 1.5, 3, 6, 9, 12 hours; conditions: 5 µM
[8] = The drug is tested on Ruminococcus gnavus strain: ATCC29149 for biotransformation under anaerobic condition. The drug concentrations were measured over 6 timepoints collected between 0 and 12 hours of incubation by liquid-chromatography-coupled mass spectrometry (LC–MS); parameters: dose 5 uM, timepoint 0, 1.5, 3, 6, 9, 12 hours; conditions: mediterraneibacter gnavus, 5 µM
[9] = as §1, with “A-07” for “T-01”; parameters: dose 5 uM, timepoint 0, 0.75, 1.5, 3, 6, 9, 12 hours; conditions: 5 µM
[10] = The drug is tested on Lactobacillus paracasei strain: ATCC27092 for biotransformation under anaerobic condition. The drug concentrations were measured over 6 timepoints collected between 0 and 12 hours of incubation by liquid-chromatography-coupled mass spectrometry (LC–MS); parameters: dose 5 uM, timepoint 0, 1.5, 3, 6, 9, 12 hours; conditions: lacticaseibacillus paracasei, 5 µM
[11] = The drug is tested on Lactobacillus gasseri strain: DSM20243 for biotransformation under anaerobic condition. The drug concentrations were measured over 6 timepoints collected between 0 and 12 hours of incubation by liquid-chromatography-coupled mass spectrometry (LC–MS); parameters: dose 5 uM, timepoint 0, 1.5, 3, 6, 9, 12 hours; conditions: 5 µM
[12] = as §1, with “A-10” for “T-01”; parameters: dose 5 uM, timepoint 0, 0.75, 1.5, 3, 6, 9, 12 hours; conditions: 5 µM
[13] = The drug is tested on Coprococcus comes strain: ATCC27758 for biotransformation under anaerobic condition. The drug concentrations were measured over 6 timepoints collected between 0 and 12 hours of incubation by liquid-chromatography-coupled mass spectrometry (LC–MS); parameters: dose 5 uM, timepoint 0, 1.5, 3, 6, 9, 12 hours; conditions: 5 µM
[14] = as §1, with “P-04” for “T-01”, “microaerobic” for “anaerobic”; parameters: dose 5 uM, timepoint 0, 0.75, 1.5, 3, 6, 9, 12 hours; conditions: 5 µM
[15] = as §1, with “A-02” for “T-01”; parameters: dose 5 uM, timepoint 0, 0.75, 1.5, 3, 6, 9, 12 hours; conditions: 5 µM
[16] = as §1, with “A-08” for “T-01”, “microaerobic” for “anaerobic”; parameters: dose 5 uM, timepoint 0, 0.75, 1.5, 3, 6, 9, 12 hours; conditions: 5 µM
[17] = The drug is tested on Parabacteroides distasonis strain: DSM20701 for biotransformation under anaerobic condition. The drug concentrations were measured over 6 timepoints collected between 0 and 12 hours of incubation by liquid-chromatography-coupled mass spectrometry (LC–MS); parameters: dose 5 uM, timepoint 0, 1.5, 3, 6, 9, 12 hours; conditions: 5 µM
[18] = as §1, with “A-03” for “T-01”; parameters: dose 5 uM, timepoint 0, 0.75, 1.5, 3, 6, 9, 12 hours; conditions: 5 µM
[19] = as §1, with “A-05” for “T-01”, “microaerobic” for “anaerobic”; parameters: dose 5 uM, timepoint 0, 0.75, 1.5, 3, 6, 9, 12 hours; conditions: 5 µM
[20] = as §1, with “A-09” for “T-01”; parameters: dose 5 uM, timepoint 0, 0.75, 1.5, 3, 6, 9, 12 hours; conditions: 5 µM
[21] = The drug is tested on Lactobacillus gasseri strain: DSM20243 for biotransformation under microaerobic condition. The drug concentrations were measured over 6 timepoints collected between 0 and 12 hours of incubation by liquid-chromatography-coupled mass spectrometry (LC–MS); parameters: dose 5 uM, timepoint 0, 1.5, 3, 6, 9, 12 hours; conditions: 5 µM
[22] = The drug is tested on Streptococcus anginosus strain: DSM20563 for biotransformation under microaerobic condition. The drug concentrations were measured over 6 timepoints collected between 0 and 12 hours of incubation by liquid-chromatography-coupled mass spectrometry (LC–MS); parameters: dose 5 uM, timepoint 0, 1.5, 3, 6, 9, 12 hours; conditions: 5 µM
[23] = The drug is tested on Eubacterium hallii strain: DSM3353 for biotransformation under anaerobic condition. The drug concentrations were measured over 6 timepoints collected between 0 and 12 hours of incubation by liquid-chromatography-coupled mass spectrometry (LC–MS); parameters: dose 5 uM, timepoint 0, 1.5, 3, 6, 9, 12 hours; conditions: anaerobutyricum hallii, 5 µM
[24] = The drug is tested on Streptococcus mitis strain: DSM12643 for biotransformation under anaerobic condition. The drug concentrations were measured over 6 timepoints collected between 0 and 12 hours of incubation by liquid-chromatography-coupled mass spectrometry (LC–MS); parameters: dose 5 uM, timepoint 0, 1.5, 3, 6, 9, 12 hours; conditions: 5 µM
[25] = The drug is tested on Collinsella aerofaciens strain: DSM3979 for biotransformation under anaerobic condition. The drug concentrations were measured over 6 timepoints collected between 0 and 12 hours of incubation by liquid-chromatography-coupled mass spectrometry (LC–MS); parameters: dose 5 uM, timepoint 0, 1.5, 3, 6, 9, 12 hours; conditions: 5 µM
[26] = The drug is tested on Gemella morbillorum strain: DSM20572 for biotransformation under microaerobic condition. The drug concentrations were measured over 6 timepoints collected between 0 and 12 hours of incubation by liquid-chromatography-coupled mass spectrometry (LC–MS); parameters: dose 5 uM, timepoint 0, 1.5, 3, 6, 9, 12 hours; conditions: 5 µM
[27] = The drug is tested on Bacteroides stercoris strain: HM 1036 for biotransformation under anaerobic condition. The drug concentrations were measured over 6 timepoints collected between 0 and 12 hours of incubation by liquid-chromatography-coupled mass spectrometry (LC–MS); parameters: dose 5 uM, timepoint 0, 1.5, 3, 6, 9, 12 hours; conditions: 5 µM
[28] = The drug is tested on Lactobacillus paracasei strain: ATCC27092 for biotransformation under microaerobic condition. The drug concentrations were measured over 6 timepoints collected between 0 and 12 hours of incubation by liquid-chromatography-coupled mass spectrometry (LC–MS); parameters: dose 5 uM, timepoint 0, 1.5, 3, 6, 9, 12 hours; conditions: lacticaseibacillus paracasei, 5 µM
[29] = The drug is tested on Lactobacillus reuteri strain: DSM20016 for biotransformation under microaerobic condition. The drug concentrations were measured over 6 timepoints collected between 0 and 12 hours of incubation by liquid-chromatography-coupled mass spectrometry (LC–MS); parameters: dose 5 uM, timepoint 0, 1.5, 3, 6, 9, 12 hours; conditions: limosilactobacillus reuteri, 5 µM
[30] = The drug is tested on Bifidobacterium longum strain: DSM20088 for biotransformation under anaerobic condition. The drug concentrations were measured over 6 timepoints collected between 0 and 12 hours of incubation by liquid-chromatography-coupled mass spectrometry (LC–MS); parameters: dose 5 uM, timepoint 0, 1.5, 3, 6, 9, 12 hours; conditions: 5 µM

Bacterial Biotransformation [1] | Bacterial Biotransformation [2] | Bacterial Biotransformation [3] | Bacterial Biotransformation [4] | Bacterial Biotransformation [5] | Bacterial Biotransformation [6] | Bacterial Biotransformation [7] | Bacterial Biotransformation [8] | Bacterial Biotransformation [9] | Bacterial Biotransformation [10] | Bacterial Biotransformation [11] | Bacterial Biotransformation [12] | Bacterial Biotransformation [13] | Bacterial Biotransformation [14] | Bacterial Biotransformation [15] | Bacterial Biotransformation [16] | Bacterial Biotransformation [17] | Bacterial Biotransformation [18] | Bacterial Biotransformation [19] | Bacterial Biotransformation [20] | Compound | other results
Compound metabolized | Compound NOT metabolized | Compound NOT metabolized | Compound NOT metabolized | Compound NOT metabolized | Compound NOT metabolized | Compound NOT metabolized | Compound NOT metabolized | Compound metabolized | Compound NOT metabolized | Compound NOT metabolized | Compound metabolized | Compound metabolized | Compound NOT metabolized | Compound NOT metabolized | Compound metabolized | Compound NOT metabolized | Compound NOT metabolized | Compound metabolized | Compound metabolized | C=CC[C@@H]1/C=C(\C)C[C@H](C)C[C@H](OC)[C@H]2O[C@@](O)(C(=O)C(=O)N3CCCC[C@H]3C(=O)O[C@H](/C(C)=C/[C@@H]3CC[C@@H](O)[C@H](OC)C3)[C@H](C)[C@@H](O)CC1=O)[C@H](C)C[C@@H]2OC.O [TACROLIMUS] | Bacterial Biotransformation [21]: Compound NOT metabolized; Bacterial Biotransformation [22]: Compound NOT metabolized; Bacterial Biotransformation [23]: Compound metabolized; Bacterial Biotransformation [24]: Compound NOT metabolized; Bacterial Biotransformation [25]: Compound metabolized; Bacterial Biotransformation [26]: Compound NOT metabolized; Bacterial Biotransformation [27]: Compound NOT metabolized; Bacterial Biotransformation [28]: Compound NOT metabolized; Bacterial Biotransformation [29]: Compound NOT metabolized; Bacterial Biotransformation [30]: Compound NOT metabolized
Compound NOT metabolized | Compound NOT metabolized | Compound NOT metabolized | Compound NOT metabolized | Compound NOT metabolized | Compound NOT metabolized | Compound NOT metabolized | Compound NOT metabolized | Compound metabolized | Compound NOT metabolized | Compound NOT metabolized | Compound NOT metabolized | Compound NOT metabolized | Compound NOT metabolized | Compound metabolized | Compound metabolized | Compound NOT metabolized | Compound metabolized | Compound NOT metabolized | Compound metabolized | C[C@H]1C[C@H]2[C@@H]3CCC4=CC(=O)C=C[C@]4(C)[C@@]3(F)[C@@H](O)C[C@]2(C)[C@@]1(O)C(=O)CO [BETAMETHASONE] | Bacterial Biotransformation [21]: Compound NOT metabolized; Bacterial Biotransformation [22]: Compound NOT metabolized; Bacterial Biotransformation [23]: Compound NOT metabolized; Bacterial Biotransformation [24]: Compound NOT metabolized; Bacterial Biotransformation [25]: Compound NOT metabolized; Bacterial Biotransformation [26]: Compound NOT metabolized; Bacterial Biotransformation [27]: Compound NOT metabolized; Bacterial Biotransformation [28]: Compound NOT metabolized; Bacterial Biotransformation [29]: Compound NOT metabolized; Bacterial Biotransformation [30]: Compound NOT metabolized
Compound NOT metabolized | Compound NOT metabolized | Compound metabolized | Compound NOT metabolized | Compound NOT metabolized | Compound NOT metabolized | Compound NOT metabolized | Compound metabolized | Compound metabolized | Compound NOT metabolized | Compound NOT metabolized | Compound metabolized | Compound NOT metabolized | Compound metabolized | Compound metabolized | Compound metabolized | Compound NOT metabolized | Compound metabolized | Compound metabolized | Compound metabolized | C[C@H]1C[C@@H]2[C@H]([C@@H](O)C[C@@]3(C)[C@H]2CC[C@]3(O)C(=O)CO)[C@@]2(C)C=CC(=O)C=C12 [METHYLPREDNISOLONE] | Bacterial Biotransformation [21]: Compound NOT metabolized; Bacterial Biotransformation [22]: Compound NOT metabolized; Bacterial Biotransformation [23]: Compound NOT metabolized; Bacterial Biotransformation [24]: Compound NOT metabolized; Bacterial Biotransformation [25]: Compound NOT metabolized; Bacterial Biotransformation [26]: Compound NOT metabolized; Bacterial Biotransformation [27]: Compound NOT metabolized; Bacterial Biotransformation [28]: Compound NOT metabolized; Bacterial Biotransformation [29]: Compound NOT metabolized; Bacterial Biotransformation [30]: Compound NOT metabolized

— ChEMBL document CHEMBL5724806, “Unraveling interindividual differences and functional consequences of gut microbial metabolism of immunosuppressants” (2024)
